One block for each molecule: values may come before it.
Legend:
[1] = target: T1, Mitogen-activated protein kinase kinase kinase 7 (Homo sapiens) (UniProt O43318); conditions: at 10 µM
T1 sequence (whole entry): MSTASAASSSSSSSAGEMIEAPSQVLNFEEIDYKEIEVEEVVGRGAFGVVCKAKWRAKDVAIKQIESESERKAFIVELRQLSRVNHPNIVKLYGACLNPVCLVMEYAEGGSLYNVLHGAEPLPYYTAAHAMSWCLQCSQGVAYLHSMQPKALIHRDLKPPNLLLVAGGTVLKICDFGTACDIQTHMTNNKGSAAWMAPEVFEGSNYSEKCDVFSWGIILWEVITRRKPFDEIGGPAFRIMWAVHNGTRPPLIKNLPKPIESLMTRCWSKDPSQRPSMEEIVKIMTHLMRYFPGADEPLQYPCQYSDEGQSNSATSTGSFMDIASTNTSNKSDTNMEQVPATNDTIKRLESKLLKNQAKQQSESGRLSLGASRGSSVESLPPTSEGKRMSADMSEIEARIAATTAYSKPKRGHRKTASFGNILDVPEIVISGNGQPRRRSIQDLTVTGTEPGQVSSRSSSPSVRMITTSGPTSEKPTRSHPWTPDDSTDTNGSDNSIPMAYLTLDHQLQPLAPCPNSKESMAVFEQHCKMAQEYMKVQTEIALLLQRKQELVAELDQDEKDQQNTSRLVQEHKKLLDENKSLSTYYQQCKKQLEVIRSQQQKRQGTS

[2] = target: Serine/threonine-protein kinase PAK 1 (Homo sapiens) (UniProt Q13153); conditions: at 10 µM
Chain of Serine/threonine-protein kinase PAK 1 (Homo sapiens) (Q13153 whole entry): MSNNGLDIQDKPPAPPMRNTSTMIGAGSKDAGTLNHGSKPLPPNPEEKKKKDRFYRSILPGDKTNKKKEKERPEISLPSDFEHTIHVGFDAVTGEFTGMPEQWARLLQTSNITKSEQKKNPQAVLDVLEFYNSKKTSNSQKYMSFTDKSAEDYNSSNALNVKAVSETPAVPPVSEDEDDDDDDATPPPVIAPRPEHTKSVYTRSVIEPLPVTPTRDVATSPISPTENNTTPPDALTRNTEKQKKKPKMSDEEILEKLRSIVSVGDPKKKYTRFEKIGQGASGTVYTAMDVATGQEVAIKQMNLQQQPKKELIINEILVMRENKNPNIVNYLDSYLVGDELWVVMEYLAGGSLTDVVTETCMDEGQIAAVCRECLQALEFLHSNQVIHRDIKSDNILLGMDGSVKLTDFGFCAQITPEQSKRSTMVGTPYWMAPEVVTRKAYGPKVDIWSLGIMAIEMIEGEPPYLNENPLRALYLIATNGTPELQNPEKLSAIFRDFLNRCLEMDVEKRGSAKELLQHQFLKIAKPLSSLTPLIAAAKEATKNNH

[3] = target: Ribosomal protein S6 kinase alpha-6 (Homo sapiens, UniProt Q9UK32); conditions: at 10 µM
[4] = target: Receptor-interacting serine/threonine-protein kinase 2 (Homo sapiens, UniProt O43353); experiment: Selectivity interaction (Ambit KINOMEscan and KiNATiv profiling in Jurkat cells) EUB0000090b RIPK2; format: cell-based; conditions: at 1 µM
Chain of Receptor-interacting serine/threonine-protein kinase 2 (O43353 whole entry): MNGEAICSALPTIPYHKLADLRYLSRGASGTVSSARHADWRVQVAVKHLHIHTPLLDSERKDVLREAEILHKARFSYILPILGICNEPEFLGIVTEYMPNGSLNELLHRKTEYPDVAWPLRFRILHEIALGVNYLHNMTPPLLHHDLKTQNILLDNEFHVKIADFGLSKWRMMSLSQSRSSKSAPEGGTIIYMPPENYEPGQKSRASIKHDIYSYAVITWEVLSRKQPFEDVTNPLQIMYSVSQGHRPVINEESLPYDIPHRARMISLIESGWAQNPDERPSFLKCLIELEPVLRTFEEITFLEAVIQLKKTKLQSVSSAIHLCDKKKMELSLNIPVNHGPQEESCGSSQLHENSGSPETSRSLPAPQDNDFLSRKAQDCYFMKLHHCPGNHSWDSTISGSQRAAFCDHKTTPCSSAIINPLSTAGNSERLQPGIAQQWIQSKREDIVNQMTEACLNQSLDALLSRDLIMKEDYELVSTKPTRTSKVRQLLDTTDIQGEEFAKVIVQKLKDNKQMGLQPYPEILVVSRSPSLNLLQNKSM

[5] = target: Serine/threonine-protein kinase Nek7 (Homo sapiens) (UniProt Q8TDX7); experiment: Selectivity interaction (ActivX KiNativ screen (kinase selectivity in THP-1 cell lysates)) EUB0000639a NEK7; format: subcellular; conditions: lysate, at 0.04 µM
[6] = target: Bromodomain adjacent to zinc finger domain protein 1A (Homo sapiens) (UniProt Q9NRL2); experiment: Selectivity interaction (Bromodomain panel (DSF asssay)) EUB0000270b BAZ1A
Chain of Bromodomain adjacent to zinc finger domain protein 1A (Homo sapiens) (Q9NRL2 whole entry, the tested form may be a part): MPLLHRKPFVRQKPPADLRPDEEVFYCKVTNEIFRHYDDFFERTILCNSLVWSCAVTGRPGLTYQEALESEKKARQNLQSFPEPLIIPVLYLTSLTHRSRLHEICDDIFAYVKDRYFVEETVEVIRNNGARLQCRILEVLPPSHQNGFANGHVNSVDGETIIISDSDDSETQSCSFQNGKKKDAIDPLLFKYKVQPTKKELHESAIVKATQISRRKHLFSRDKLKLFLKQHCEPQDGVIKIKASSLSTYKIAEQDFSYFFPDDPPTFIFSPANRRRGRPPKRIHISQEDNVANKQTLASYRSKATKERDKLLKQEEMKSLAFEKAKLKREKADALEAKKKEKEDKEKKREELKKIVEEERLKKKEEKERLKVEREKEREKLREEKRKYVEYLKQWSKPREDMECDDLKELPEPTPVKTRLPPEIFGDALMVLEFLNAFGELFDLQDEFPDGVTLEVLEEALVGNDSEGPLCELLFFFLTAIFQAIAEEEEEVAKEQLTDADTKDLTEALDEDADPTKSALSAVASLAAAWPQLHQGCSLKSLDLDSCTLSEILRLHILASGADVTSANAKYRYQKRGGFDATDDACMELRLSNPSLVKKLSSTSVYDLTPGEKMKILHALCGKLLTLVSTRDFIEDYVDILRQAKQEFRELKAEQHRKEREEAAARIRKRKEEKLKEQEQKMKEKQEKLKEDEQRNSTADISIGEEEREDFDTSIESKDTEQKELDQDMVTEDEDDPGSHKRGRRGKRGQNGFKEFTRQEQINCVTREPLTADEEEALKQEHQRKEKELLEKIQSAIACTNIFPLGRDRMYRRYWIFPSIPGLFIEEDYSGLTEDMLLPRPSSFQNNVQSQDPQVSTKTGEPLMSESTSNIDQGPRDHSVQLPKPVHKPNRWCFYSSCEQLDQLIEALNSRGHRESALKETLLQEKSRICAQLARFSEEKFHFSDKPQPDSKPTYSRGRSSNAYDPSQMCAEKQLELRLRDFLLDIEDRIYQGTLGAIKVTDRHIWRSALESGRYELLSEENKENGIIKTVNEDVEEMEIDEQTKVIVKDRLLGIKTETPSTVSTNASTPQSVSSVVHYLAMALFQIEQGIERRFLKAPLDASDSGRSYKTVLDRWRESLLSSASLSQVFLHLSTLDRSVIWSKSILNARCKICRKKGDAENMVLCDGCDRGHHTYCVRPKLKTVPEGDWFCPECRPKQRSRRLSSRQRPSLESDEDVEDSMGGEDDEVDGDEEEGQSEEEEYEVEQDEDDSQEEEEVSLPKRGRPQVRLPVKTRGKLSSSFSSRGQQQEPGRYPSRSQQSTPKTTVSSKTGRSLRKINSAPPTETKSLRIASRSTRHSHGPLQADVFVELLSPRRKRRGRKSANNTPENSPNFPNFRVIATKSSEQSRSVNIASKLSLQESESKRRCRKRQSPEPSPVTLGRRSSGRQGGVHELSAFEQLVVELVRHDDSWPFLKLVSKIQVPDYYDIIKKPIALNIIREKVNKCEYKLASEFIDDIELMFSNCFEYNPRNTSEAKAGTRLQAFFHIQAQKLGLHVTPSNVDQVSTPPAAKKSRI

[7] = target: Cyclin-dependent kinase 18 (Homo sapiens) (UniProt Q07002); experiment: Selectivity interaction (KinomeScan (DiscoverX)) EUB0000595a CDK18; conditions: at 10 µM
Chain of Cyclin-dependent kinase 18 (Homo sapiens) (Q07002 whole entry): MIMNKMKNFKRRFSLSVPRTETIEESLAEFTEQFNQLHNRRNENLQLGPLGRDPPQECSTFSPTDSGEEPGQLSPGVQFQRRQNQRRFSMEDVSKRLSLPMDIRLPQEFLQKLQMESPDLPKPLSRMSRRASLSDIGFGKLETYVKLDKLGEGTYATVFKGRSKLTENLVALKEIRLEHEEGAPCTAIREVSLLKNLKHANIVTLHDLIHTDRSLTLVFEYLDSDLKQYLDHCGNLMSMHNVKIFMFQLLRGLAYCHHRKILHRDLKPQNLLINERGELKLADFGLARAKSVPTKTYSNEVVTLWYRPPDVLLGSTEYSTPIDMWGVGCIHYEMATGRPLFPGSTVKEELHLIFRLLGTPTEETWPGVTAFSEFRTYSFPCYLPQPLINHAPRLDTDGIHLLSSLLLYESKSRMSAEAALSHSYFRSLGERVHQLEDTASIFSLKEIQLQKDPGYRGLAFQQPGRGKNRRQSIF

[8] = target: Ephrin type-A receptor 7 (Homo sapiens) (UniProt Q15375); experiment: Selectivity interaction (KinomeScan (DiscoverX)) EUB0001079a EPHA7; conditions: at 1 µM
[9] = target: Macrophage-stimulating protein receptor (Homo sapiens, UniProt Q04912); experiment: Selectivity interaction (KinomeScan (DiscoverX)) EUB0000092b MST1R; conditions: at 10 µM
Chain of Macrophage-stimulating protein receptor (Q04912 25-304 limits assumed): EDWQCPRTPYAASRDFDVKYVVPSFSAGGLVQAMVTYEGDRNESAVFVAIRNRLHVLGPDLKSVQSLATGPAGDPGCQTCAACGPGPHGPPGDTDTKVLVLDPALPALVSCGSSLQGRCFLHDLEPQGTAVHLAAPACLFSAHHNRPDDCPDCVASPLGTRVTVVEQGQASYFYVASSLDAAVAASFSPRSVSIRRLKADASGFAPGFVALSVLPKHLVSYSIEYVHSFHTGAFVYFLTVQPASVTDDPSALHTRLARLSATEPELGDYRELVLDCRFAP
Chain of Macrophage-stimulating protein receptor (Q04912 310-1400 limits assumed): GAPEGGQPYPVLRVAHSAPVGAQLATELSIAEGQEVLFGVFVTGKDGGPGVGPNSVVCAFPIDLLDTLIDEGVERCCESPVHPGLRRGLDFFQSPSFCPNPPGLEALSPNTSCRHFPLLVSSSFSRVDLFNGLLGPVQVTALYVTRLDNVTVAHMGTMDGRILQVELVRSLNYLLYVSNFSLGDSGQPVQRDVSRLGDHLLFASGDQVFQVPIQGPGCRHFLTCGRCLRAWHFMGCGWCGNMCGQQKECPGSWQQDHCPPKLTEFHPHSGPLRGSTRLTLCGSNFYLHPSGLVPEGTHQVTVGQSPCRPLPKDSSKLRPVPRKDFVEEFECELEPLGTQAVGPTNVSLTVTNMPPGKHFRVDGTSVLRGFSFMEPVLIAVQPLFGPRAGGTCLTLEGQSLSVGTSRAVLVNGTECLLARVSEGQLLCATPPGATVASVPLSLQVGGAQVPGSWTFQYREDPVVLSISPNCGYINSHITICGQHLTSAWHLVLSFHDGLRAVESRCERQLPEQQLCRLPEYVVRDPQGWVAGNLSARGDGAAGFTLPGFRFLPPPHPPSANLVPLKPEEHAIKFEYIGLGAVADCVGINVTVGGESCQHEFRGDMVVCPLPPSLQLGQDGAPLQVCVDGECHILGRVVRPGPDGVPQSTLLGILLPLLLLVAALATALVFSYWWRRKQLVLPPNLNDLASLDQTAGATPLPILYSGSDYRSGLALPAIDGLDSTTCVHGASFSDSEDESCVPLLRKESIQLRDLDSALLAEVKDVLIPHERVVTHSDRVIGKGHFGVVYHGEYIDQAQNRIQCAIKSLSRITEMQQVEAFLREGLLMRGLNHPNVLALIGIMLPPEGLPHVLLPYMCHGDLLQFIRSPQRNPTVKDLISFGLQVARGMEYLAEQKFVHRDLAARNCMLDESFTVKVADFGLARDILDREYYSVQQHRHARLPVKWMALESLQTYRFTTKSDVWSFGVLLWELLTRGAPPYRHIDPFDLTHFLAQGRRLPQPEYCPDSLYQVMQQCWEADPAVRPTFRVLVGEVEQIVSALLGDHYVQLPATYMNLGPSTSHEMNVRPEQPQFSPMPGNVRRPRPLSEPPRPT

[10] = target: T2, Activin receptor type-1B (Homo sapiens) (UniProt P36896); experiment: Selectivity interaction (Upstate Kinase Profiler service (Millipore)) EUB0000056c ACVR1B; conditions: at 1 µM
T2 sequence (whole entry): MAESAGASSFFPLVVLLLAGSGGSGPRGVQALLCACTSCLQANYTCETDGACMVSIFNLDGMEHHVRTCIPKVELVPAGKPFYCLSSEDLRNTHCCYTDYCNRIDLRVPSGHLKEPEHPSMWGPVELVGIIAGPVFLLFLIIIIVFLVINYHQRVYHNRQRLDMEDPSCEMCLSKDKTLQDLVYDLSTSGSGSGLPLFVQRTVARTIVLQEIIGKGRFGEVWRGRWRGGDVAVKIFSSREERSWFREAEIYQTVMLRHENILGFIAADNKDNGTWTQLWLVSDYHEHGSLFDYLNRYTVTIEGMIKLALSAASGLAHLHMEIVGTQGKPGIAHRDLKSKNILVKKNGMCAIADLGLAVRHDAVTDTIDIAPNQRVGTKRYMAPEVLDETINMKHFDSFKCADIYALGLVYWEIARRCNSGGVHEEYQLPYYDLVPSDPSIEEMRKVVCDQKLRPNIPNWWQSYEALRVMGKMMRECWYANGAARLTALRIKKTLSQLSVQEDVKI

[11] = target: Serine/threonine-protein kinase PAK 6 (Homo sapiens) (UniProt Q9NQU5); experiment: Selectivity interaction (Upstate Kinase Profiler service (Millipore)) EUB0000056c PAK6; conditions: at 1 µM
[12] = target: Bone morphogenetic protein receptor type-1B (Homo sapiens, UniProt O00238); experiment: Selectivity interaction (KinomeScan (DiscoverX)) EUB0000618a BMPR1B; conditions: at 10 µM
Chain of Bone morphogenetic protein receptor type-1B (O00238 whole entry): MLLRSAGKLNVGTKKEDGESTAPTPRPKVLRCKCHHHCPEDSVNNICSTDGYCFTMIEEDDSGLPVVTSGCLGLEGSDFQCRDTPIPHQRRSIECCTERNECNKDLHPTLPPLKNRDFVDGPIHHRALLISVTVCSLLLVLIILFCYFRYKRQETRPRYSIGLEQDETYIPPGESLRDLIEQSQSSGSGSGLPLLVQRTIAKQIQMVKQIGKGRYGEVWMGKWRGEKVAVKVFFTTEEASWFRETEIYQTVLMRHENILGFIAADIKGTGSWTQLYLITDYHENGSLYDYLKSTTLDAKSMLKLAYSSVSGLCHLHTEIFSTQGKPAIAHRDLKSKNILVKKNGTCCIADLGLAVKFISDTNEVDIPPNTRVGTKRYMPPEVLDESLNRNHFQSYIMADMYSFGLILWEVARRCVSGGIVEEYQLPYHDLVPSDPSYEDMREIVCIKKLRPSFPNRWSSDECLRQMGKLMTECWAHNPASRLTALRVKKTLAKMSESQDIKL

[13] = target: Atypical kinase COQ8A, mitochondrial (Homo sapiens, UniProt Q8NI60); experiment: Selectivity interaction (KinomeScan (DiscoverX)) EUB0000666a ADCK3; conditions: at 10 µM
[14] = target: T3, Peripheral plasma membrane protein CASK (Homo sapiens) (UniProt O14936); experiment: Selectivity interaction (KinomeScan (DiscoverX)) EUB0000666a CASK; conditions: at 10 µM
T3 sequence (whole entry): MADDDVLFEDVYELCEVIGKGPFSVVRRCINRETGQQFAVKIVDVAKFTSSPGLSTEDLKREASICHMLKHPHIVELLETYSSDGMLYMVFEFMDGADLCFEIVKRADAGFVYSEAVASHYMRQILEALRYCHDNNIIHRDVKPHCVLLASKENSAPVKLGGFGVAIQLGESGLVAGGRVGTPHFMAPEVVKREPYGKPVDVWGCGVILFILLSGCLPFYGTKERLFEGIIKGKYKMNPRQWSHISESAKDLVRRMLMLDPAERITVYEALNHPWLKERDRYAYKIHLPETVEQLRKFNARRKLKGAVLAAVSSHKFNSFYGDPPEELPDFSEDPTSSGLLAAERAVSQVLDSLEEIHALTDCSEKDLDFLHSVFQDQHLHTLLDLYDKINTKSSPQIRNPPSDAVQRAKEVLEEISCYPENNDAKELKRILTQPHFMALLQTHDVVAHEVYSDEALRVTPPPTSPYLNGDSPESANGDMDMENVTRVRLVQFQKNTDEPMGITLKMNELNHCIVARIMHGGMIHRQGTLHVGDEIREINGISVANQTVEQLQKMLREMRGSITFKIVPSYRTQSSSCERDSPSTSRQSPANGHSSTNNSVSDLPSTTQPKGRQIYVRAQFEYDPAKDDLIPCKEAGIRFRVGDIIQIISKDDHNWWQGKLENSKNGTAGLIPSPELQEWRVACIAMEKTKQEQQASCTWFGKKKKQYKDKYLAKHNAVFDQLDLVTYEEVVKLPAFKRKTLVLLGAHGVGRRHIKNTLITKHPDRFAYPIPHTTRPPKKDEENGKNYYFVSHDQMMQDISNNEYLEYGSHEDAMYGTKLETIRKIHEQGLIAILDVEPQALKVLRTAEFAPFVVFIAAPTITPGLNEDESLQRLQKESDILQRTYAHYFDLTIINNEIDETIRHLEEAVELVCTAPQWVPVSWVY

SMILES: Cc1cc([C@@H](C)Nc2ccccc2C(=O)O)c2nc(N3CCOCC3)cc(=O)n2c1 [AZD-6482]
- % of control [1]: 89%
- % of control [2]: 100%
- % of control [3]: 100%

SMILES: CN(C)C/C=C/C(=O)Nc1ccc(C(=O)N2CCCC(Nc3ncc(Cl)c(-c4c[nH]c5ccccc45)n3)C2)cc1 (centres undefined)
- % of control [4]: 88%

- % of inhibition [5]: 1.5%
SMILES: CC[C@@H]1[C@H](F)C(=O)N[C@@H]1COc1nccc2cc(C(N)=O)c(OC)cc12 [ZIMLOVISERTIB]

- dTM [6]: -1.36 K
SMILES: Cc1cc(CN)cc(C)c1-c1ncn(C)c1-c1cncn1C

SMILES: COCC(=O)NC/C=C/c1ccc2ncnc(Nc3ccc(Oc4ccc(C)nc4)c(C)c3)c2c1 [CP-724714]
- % of control [7]: 99%

SMILES: Nc1cnc(N2CCc3cc(S(=O)(=O)Nc4c(F)cc(Cl)cc4F)cc(N4CCCC4=O)c32)nc1 [TP-020n]
- % of control [8]: 85%

SMILES: CCC(=O)N1CCN(c2ccc(-n3c(=O)ccc4cnc5ccc(-c6cnc7ccccc7c6)cc5c43)cc2C(F)(F)F)CC1
- % of control [9]: 55%

- % of inhibition [10]: 9%
- % of inhibition [11]: 9%
SMILES: Cc1ccc(-c2ccc3c(ccc4sc5c(c43)NC[C@@H](C)NC5=O)n2)cn1

SMILES: O[C@H]1CC[C@H](Nc2ncc3nc(Nc4c(F)cc(F)cc4F)n([C@H]4CCOC4)c3n2)CC1
- % of control [12]: 100%

SMILES: O=C(NOC[C@H](O)CO)c1ccc(F)c(F)c1Nc1ccc(I)cc1F
- % of control [13]: 86%
- % of control [14]: 67%
